Series [1] can be described thus: Cytotoxicity against human FHC cells assessed as reduction in cell viability incubated for 48 hrs by AlamarBlue-based assay. The format is toxicity.
Series [2] is described as follows: Inhibition of refolded MDH reporter enzyme (unknown origin). The arrangement: species or system Homo sapiens.
The test system of another series is DLD-1. The experiment in a line: Cytotoxicity against human DLD-1 cells assessed as reduction in cell viability incubated for 48 hrs by AlamarBlue-based assay. The format is functional. The conditions noted are these: DLD-1, 48 h. A general note: Alamar Blue is a resazurin reagent that responds to reducing activity.
In series [3] the test system is HCT-116. The experiment in a line: Cytotoxicity against human HCT-116 cells assessed as reduction in cell viability incubated for 72 hrs by AlamarBlue-based assay relative to control. The format is functional.
Series [4] in a line: Cytotoxicity against human FHs74Int cells assessed as reduction in cell viability incubated for 48 hrs by AlamarBlue-based assay. The format is toxicity.
The test system of another series is Escherichia coli. The experiment in a line: Inhibition of Escherichia coli GroEL expressed in NEB-5-alpha Escherichia coli cells/Escherichia coli GroES expressed in Escherichia coli BL21(DE3) cells assessed as inhibition of GroEL/ES-mediated dMDH refolding measured after 24 hrs dialysis period by reporter analysis.
The subject of a further series is HT-29. The series is described as follows: Cytotoxicity against human HT-29 cells assessed as reduction in cell viability incubated for 48 hrs by AlamarBlue-based assay. The series is classed as functional. The conditions noted are these: HT-29, 48 h.
Series [5] deals with HCT-116. The experiment in a line: Cytotoxicity against p53-/- human HCT-116 cells assessed as reduction in cell viability incubated for 48 hrs by AlamarBlue-based assay. The settings on record: HCT-116, 48 h. The series is classed as functional.
Series [6] can be described thus: Selectivity index, ratio of CC50 for cytotoxicity against non-cancerous cells to EC50 for cytotoxicity against human HCT-116 cells. The series is classed as toxicity, cell-based. The conditions noted are these: non-cancerous cells versus HCT-116 cells, read-out: Ratio CC50/EC50.
Series [7] in a line: Inhibition of Escherichia coli GroEL expressed in NEB-5-alpha Escherichia coli cells/Escherichia coli GroES expressed in Escherichia coli BL21(DE3) cells assessed as inhibition of GroEL/ES-mediated dRho refolding by reporter analysis.
The test system of series [8] is HCT-116. The series is described as follows: Induction of apoptosis in human HCT-116 cells at 0.1 to 100 uM incubated for 48 hrs by AnnexinV-FITC/PI staining based flow cytometry. The series is classed as functional, cell-based. The conditions noted are these: dose 0.1-100 µM. A general note: Flow cytometry measures light scatter and fluorescence of single cells or particles in a stream.

Series [9] is described as follows: Inhibition of refolded rhodanese reporter enzyme (unknown origin). The arrangement: species or system Homo sapiens.
The nature of series [10]: Inhibition of human mitochondrial HSP60 expressed in Escherichia coli Rosetta 2 (DE3) cells/human mitochondrial HSP10 expressed in Escherichia coli Rosetta 2 (DE3) pLysS cells assessed as inhibition of […]-mediated dMDH refolding by reporter analysis. The series is classed as mitochondria, Mitochondria.
Series [11] relates to HCT-116. The experiment in a line: Cytotoxicity against human HCT-116 cells assessed as reduction in cell viability incubated for 48 hrs by AlamarBlue-based assay. The series is classed as functional. The settings on record: HCT-116, 48 h.
For series [12], the system named is HCT-116. The series is described as follows: Inhibition of clonogenicity in human HCT-116 cells at > 1 uM incubated for 72 hrs followed by incubation in fresh medium for 7 days by crystal violet staining based analysis. The series is classed as functional, cell-based.
Series [13] deals with HCT-116. The series is described as follows: Cytotoxicity against human HCT-116 cells assessed as reduction in cell viability at 0.01 to 100 uM by Trypan Blue staining based analysis. The format is functional. The conditions noted are these: dose 0.01-100 µM, time 24-48 hrs, TDE = time-dependent effect.
Series [14] has as its system HCT-116. The series is described as follows: Induction of necrotic cell death in human HCT-116 cells at 0.1 to 100 uM incubated for 48 hrs by AnnexinV-FITC/PI staining based flow cytometry. The conditions noted are these: dose 0.1-100 µM. The series is classed as functional.
A short description of series [15]: Inhibition of Escherichia coli GroEL expressed in NEB-5-alpha Escherichia coli cells/Escherichia coli GroES expressed in Escherichia coli BL21(DE3) cells assessed as inhibition of GroEL/ES-mediated dMDH refolding by reporter analysis.
Series [16] relates to HCT-116. The series is described as follows: Cytotoxicity against human HCT-116 cells assessed as reduction in cell viability incubated for 48 hrs by AlamarBlue-based assay relative to control. The format is functional.
In series [17] the test system is HCT-116. The series is described as follows: Inhibition of cell migration in human HCT-116 cells measured after 26 hrs by scratch wound healing assay. The series is classed as functional, cell-based. The settings on record: HCT-116, 26 h.

Calls of active or inactive are those of the source. No cut-off for these calls is given here. A value given as a limit tells only on which side of the number the result lay.

As a reminder, the CC50 is the concentration at which the toxic effect on the cells reaches its halfway point. Usually IC50 stands for the concentration that gives 50% inhibition. Usually EC50 stands for the concentration giving half of the maximal effect. In the case of `O=C(/C=C/c1cccc([N+](=O)[O-])c1)c1ccc(NC(=O)c2ccco2)cc1`, the 50% cytotoxic concentration (CC50) at 48 h is > 100 µM in [1] and 54 µM in [4]. For the same compound, the IC50 in series [2] was > 63 µM; in series [7], 2.2 µM; in series [9], > 100 µM; in [10], 2.5 µM; in [15], 0.73 µM. Also, the EC50 came to 22 µM in the series on DLD-1, 3.5 µM in the series on HT-29, 4.1 µM with HCT-116 [5] and 3.4 µM in the series on HCT-116 [11]. Moreover, the Activity was 100% with HCT-116 [3] and “Tde” in the series with HCT-116 [13]. For the same compound, the inhibition entry in the series with Escherichia coli and in the series with HCT-116 [12] was “Active” throughout. Besides, the selectivity ratio in series [6] stood at 23. For the same compound, the outcome in the series with HCT-116 [8] and in the series on HCT-116 [14] was Active.
Consider `O=C(/C=C/c1cccc([N+](=O)[O-])c1)c1ccc(NC(=O)c2ccccc2)cc1`, for which the half-maximal cytotoxic concentration (CC50) at 48 h in series [1] and in series [4] was > 100 µM throughout. Besides, the IC50 in series [2] is > 63 µM; in series [7] it was 3.1 µM; in [9], > 100 µM; in [10], 2.3 µM; in series [15] it was 0.71 µM. The half-maximal effective concentration (EC50) was > 100 µM in the series on DLD-1, 3.9 µM with HT-29, 25 µM in the series with HCT-116 [5] and 4.1 µM in the series with HCT-116 [11]. Besides, the selectivity ratio in [6] amounted to 24.
Consider `O=C(/C=C/c1ccccc1)c1ccc(O)cc1` [4'-HYDROXYCHALCONE], for which the values for the CC50 at 48 h in series [1] and in series [4] were 82 µM and 65 µM, respectively. The IC50 was > 63 µM in [2]; 61 µM in series [7]; > 100 µM in series [9]; 21 µM in series [10]; 20 µM in [15]. For the same compound, the EC50 is 34 µM in the series with DLD-1, 30 µM in the series with HT-29, 21 µM in the series with HCT-116 [5] and 20 µM in the series on HCT-116 [11]. In addition, in [6], the selectivity ratio worked out at 3.7.
Take `O=C(/C=C/c1cccc([N+](=O)[O-])c1)c1ccc(NC(=O)c2cccs2)cc1`: the results for the CC50 at 48 h in series [1] and in series [4] were 73 µM and 24 µM, respectively. Further, the concentration for half-maximal inhibition (IC50) was > 63 µM in series [2]; 1.5 µM in series [7]; > 100 µM in series [9]; 2.2 µM in series [10]; 0.41 µM in series [15]. Also, the EC50 with DLD-1 came to 11 µM; in the series on HT-29 it was 2.5 µM; with HCT-116 [5], 2.5 µM; in the series on HCT-116 [11] it was 2.6 µM; with HCT-116 [17], 13 µM. Further, the selectivity ratio in series [6] stood at 19. The Activity in the series on HCT-116 [16] was 100%; in the series on HCT-116 [13], “Tde”. For the same compound, the outcome in the series with HCT-116 [8] and in the series with HCT-116 [14] was Active. Besides, in the series with HCT-116 [12], the inhibition entry was “Active”.

(Values after ChEMBL document CHEMBL5150040, “Bis-aryl-α,β-unsaturated ketone (ABK) chaperonin inhibitors exhibit selective cytotoxicity to colorectal cancer cells that correlates with levels of aberrant HSP60 in the cytosol” (Bioorg Med Chem, 2022).)
